{"source": "patent US7879357B2", "about": "(priority 2003, dated 2011)", "origin": "cited, not measured here", "conditions": "skin of the retro-auricular region and the scrotum"}
{"smiles": "C[C@]12CCC(=O)C=C1CC[C@@H]1[C@@H]2[C@@H](O)C[C@@]2(C)[C@H]1CC[C@]2(O)C(=O)CO", "note": "[hydrocortisone]", "values": [{"measurement": "uptake rate through the skin compared to the lower arm", "result": "up to 40 ×"}]}
